Among the data in patent US20240262815A1, “HETEROARYL DERIVATIVE, METHOD FOR PREPARING SAME, AND PHARMACEUTICAL COMPOSITION COMPRISING SAME AS ACTIVE INGREDIENT” (VORONOI INC., priority 2021, published 2024) are GI50 values, retold here.

The structures appear in SMILES notation.

One assay relates to SK-BR-3 cancer cells. Put plainly: Inhibitory activity against proliferation of SK-BR-3 cancer cells (CellTiter-Glo). The class given is cell-based. As to conditions: Homo sapiens, SK-BR-3, 120 h, ErbB2-overexpressing SK-BR-3 cells, 120 hours after treatment. An outline of the steps: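 Cells seeded 48 h before dosing (SK-BR-3 in McCOY'S 5A + 10% FBS; BT-474 in RPMI-1640 + 20% FBS), then exposed 120 h to 12 concentrations, 0.2 nM-5 μM final. Viability by CellTiter-Glo luminescence; GI50 from growth rate vs control, triplicate runs.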
`C=CC(=O)Nc1cc(Nc2cc(N3OCCC3c3cc(F)cc(OCc4nccs4)c3)ncn2)c(OC)cc1N1CCN(C)CC1` (centres unmarked) [Example compound 132, N-(5-((6-(3-(3-fluoro-5-(thiazol-2-ylmethoxy)phenyl)isoxazolidin-2-yl)pyrimidin-4-yl)amino)-4-methoxy-2-(4-methylpiperazin-1-yl)phenyl)acrylamide]: the GI50 was under 0.05 µM.

On to `C=CC(=O)Nc1cc(Nc2cc(N3OCC[C@@H]3c3cc(F)cc(-c4ccco4)c3)ncn2)c(OC)cc1N1CCN(C)CC1` [Example compound 133, (R)-N-(5-((6-(3-(3-fluoro-5-(furan-2-yl)phenyl)isoxazolidin-2-yl)pyrimidin-4-yl)amino)-4-methoxy-2-(4-methylpiperazin-1-yl)phenyl)acrylamide], for which the GI50 is under 0.05 µM.

In the case of `C=CC(=O)Nc1cc(Nc2cc(N3OCC[C@@H]3c3cc(F)cc(-c4ccco4)c3)ncn2)c(OC)cc1N1CCC(N2CCN(C3CC3)CC2)CC1` [Example compound 134, (R)-N-(2-(4-(4-cyclopropylpiperazin-1-yl)piperidin-1-yl)-5-((6-(3-(3-fluoro-5-(furan-2-yl)phenyl)isoxazolidin-2-yl)pyrimidin-4-yl)amino)-4-methoxyphenyl)acrylamide], the GI50 is under 0.05 µM.

Turning to `C=CC(=O)Nc1cc(Nc2cc(N3OCCC3c3cccc(C#Cc4ccccc4)c3)ncn2)c(OC)cc1N1CCN(C)CC1` (centres unmarked) [Example compound 137, N-(4-methoxy-2-(4-methylpiperazin-1-yl)-5-((6-(3-(3-(phenylethynyl)phenyl)isoxazolidin-2-yl)pyrimidin-4-yl)amino)phenyl)acrylamide], the concentration for 50% growth inhibition (GI50) fell in the range of 0.05 to 0.5 µM.

As to `C=CC(=O)Nc1cc(Nc2cc(N3OCCC3c3cccc(C#Cc4ccccc4)c3)ncn2)c(OC)cc1N1CCC(N2CCN(C3CC3)CC2)CC1` (centres unmarked) [Example compound 138, N-(2-(4-(4-cyclopropylpiperazin-1-yl)piperidin-1-yl)-4-methoxy-5-((6-(3-(3-(phenylethynyl)phenyl)isoxazolidin-2-yl)pyrimidin-4-yl)amino)phenyl)acrylamide], the concentration for 50% growth inhibition (GI50) fell in the range of 0.05 to 0.5 µM.

With `C=CC(=O)Nc1cc(Nc2cc(N3OCCC3c3cccc(C#CC(C)(C)C)c3)ncn2)c(OC)cc1N1CCN(C)CC1` (centres unmarked) [Example compound 139, N-(5-((6-(3-(3-(3,3-dimethylbut-1-yn-1-yl)phenyl)isoxazolidin-2-yl)pyrimidin-4-yl)amino)-4-methoxy-2-(4-methylpiperazin-1-yl)phenyl)acrylamide], the GI50 lay within 0.05 to 0.5 µM.

Take `C=CC(=O)Nc1cc(Nc2cc(N3OCCC3c3cccc(C#CC(C)(C)C)c3)ncn2)c(OC)cc1N1CCC(N2CCN(C3CC3)CC2)CC1` (centres unmarked) [Example compound 140, N-(2-(4-(4-cyclopropylpiperazin-1-yl)piperidin-1-yl)-5-((6-(3-(3-(3,3-dimethylbut-1-yn-1-yl)phenyl)isoxazolidin-2-yl)pyrimidin-4-yl)amino)-4-methoxyphenyl)acrylamide]: the 50% growth inhibitory concentration (GI50) fell in the range of 0.05 to 0.5 µM.

On to `C=CC(=O)Nc1cc(Nc2cc(N3OCC[C@@H]3c3ccc(F)c(Oc4cccc(F)c4)c3)ncn2)c(OC)cc1N1CCC(N2CCN(C3CC3)CC2)CC1` [Example compound 152, (R)-N-(2-(4-(4-cyclopropylpiperazin-1-yl)piperidin-1-yl)-5-((6-(3-(4-fluoro-3-(3-fluorophenoxy)phenyl)isoxazolidin-2-yl)pyrimidin-4-yl)amino)-4-methoxyphenyl)acrylamide], for which the concentration for 50% growth inhibition (GI50) is under 0.05 µM.

Turning to `C=CC(=O)Nc1cc(Nc2cc(N3OCC[C@@H]3c3ccc(F)c(Oc4cccc(F)c4)c3)ncn2)c(OC)cc1N1CCN(C)CC1` [Example compound 153, (R)-N-(5-((6-(3-(4-fluoro-3-(3-fluorophenoxy)phenyl)isoxazolidin-2-yl)pyrimidin-4-yl)amino)-4-methoxy-2-(4-methylpiperazin-1-yl)phenyl)acrylamide], the GI50 lay in the range of 0.05 to 0.5 µM.

The subject of a further assay is BT-474 cancer cells. Put plainly: Inhibitory activity against proliferation of BT-474 cancer cells (CellTiter-Glo). The assay is classed as cell-based. As to conditions: Homo sapiens, BT-474 ErbB2-overexpressing cancer cells, 120 hours after treatment. As for the experimental part: To evaluate the inhibitory activity of a compound according to the present invention against the proliferation of ErbB2-overexpressing cancer cells, the following experiment were performed.
10% FBS-added McCOY'S 5A was used for SK-BR-3 cancer cells. 20% FBS-added RPMI-1640 was used for BT-474 cancer cells. Transduced Ba/F3 cells were cultured in a RPMI-1640 medium to which 1 μg/ml puromycin (Invitrogen) was added.
48 hours before compound treatment, each type of the SK-BR-3 and BT-474 cells were seeded at 5,000 cells/well in a white clear bottom 96 well plate (Corning). The compound was diluted in dimethyl sulfoxide (SK-BR-3: 3-fold dilution, a total of 12 concentrations, BT-474: […], a total of 12 concentrations) and injected at 1 μl to have the final concentration of 0.2 nM to 5 μM. As for measurement of live cells, 120 hours after treatment with the compound, a CellTiter-Glo luminescent cell-viability reagent (Promega) was used to store the cells at room temperature for 10 minutes, followed by measurement of luminescence using a reader (SynergyNeo, Biotek). Each test was repeated three times.
The result values were calculated as a cell growth rate (%) compared to the control group. A graph was plotted using the GraphPad Prism version 8.3.0 program, and GI50 values were calculated.
In the case of `C=CC(=O)Nc1cc(Nc2cc(N3OCC[C@@H]3c3cc(F)cc(-c4cccc(F)c4)c3)ncn2)c(OC)cc1N1CCC(N2CCN(C3CC3)CC2)CC1` [Example 248, (R)-N-(2-(4-(4-cyclopropylpiper-azin-1-yl)piperidin-1-yl)-5-((6-(3-(3′,5-difluoro-[1,1′-biphenyl]-3-yl)-isoxazolidin-2-yl)-pyrimidin-4-yl)-amino)-4-methoxy-phenyl)acrylamide], the concentration for 50% growth inhibition (GI50) is under 0.05 µM.

Take `C=CC(=O)Nc1cc(Nc2cc(N3OCC[C@@H]3c3cccc(-c4cccc(C(N)=O)c4)c3)ncn2)c(OC)cc1N1CCN(C)CC1` [Example 325, (R)-3′-(2-(6-((5-acrylamido-2-methoxy-4-(4-methylpiperazin-1-yl)phenyl)-amino)pyrimidin-4-yl)isoxazolidin-3-yl)-[1,1′-biphen-yl]-3-carboxamide]: the concentration for 50% growth inhibition (GI50) was under 0.05 µM.

For the compound `C=CC(=O)Nc1cc(Nc2cc(N3OCC[C@@H]3c3cccc(-c4cccc(F)c4F)c3)ncn2)c(OC)cc1N1CCN(C)[C@@H](C)C1` [Example 326, N-(5-((6-((R)-3-(2′,3′-difluoro-[1,1′-biphenyl]-3-yl)isoxazolidin-2-yl)pyrimidin-4-yl)amino)-2-((S)-3,4-dimethylpiper-azin-1-yl)-4-meth-oxyphenyl)acryl-amide], the 50% growth inhibitory concentration (GI50) is under 0.05 µM.

Consider `C=CC(=O)Nc1cc(Nc2cc(N3OCC[C@@H]3c3cccc(-c4ccc(F)cc4F)c3)ncn2)c(OC)cc1N1CCN(C)[C@@H](C)C1` [Example 327, N-(5-((6-((R)-3-(2′,4′-difluoro-[1,1′-biphenyl]-3-yl)-isoxazolidin-2-yl)-pyrimidin-4-yl)-amino)-2-((S)-3,4-dimethylpiperazin-1-yl)-4-methoxy-phenyl)acrylamide], for which the 50% growth inhibitory concentration (GI50) was under 0.05 µM.

As to `C=CC(=O)Nc1cc(Nc2cc(N3OCC[C@@H]3c3cccc(-c4cccc(F)c4)c3)ncn2)c(OC)cc1N1C[C@@H](C)N(C(=O)OC(C)(C)C)[C@@H](C)C1` [Example 328, tert-butyl (2S,6R)-4-(2-acrylamido-4-((6-((R)-3-(3′-fluoro-[1,1′-biphen-yl]-3-yl)isoxazol-idin-2-yl)pyrim-idin-4-yl)amino)-5-methoxyphenyl)-2,6-dimethylpiper-azine-1-carboxylate], the 50% growth inhibitory concentration (GI50) was in the range of 0.05 to 0.5 µM.

For the compound `C=CC(=O)Nc1cc(Nc2cc(N3OCC[C@@H]3c3cccc(-c4cccc(F)c4)c3)ncn2)c(OC)cc1N1C[C@@H](C)N[C@@H](C)C1` [Example 329, N-(2-((3S,5R)-3,5-dimethyl-piperazin-1-yl)-5-((6-((R)-3-(3′-fluoro-[1,1′-bi-phenyl]-3-yl)-isoxazolidin-2-yl)pyrimidin-4-yl)amino)-4-meth-oxyphenyl)acryl-amide], the concentration for 50% growth inhibition (GI50) is under 0.05 µM.

Take `C=CC(=O)Nc1cc(Nc2cc(N3OCC[C@@H]3c3cccc(-c4cccc(C#N)c4)c3)ncn2)c(OC)cc1N1CCN(C)CC1` [Example 330, (R)-N-(5-((6-(3-(3′-cyano-[1,1′-biphenyl]-3-yl)-isoxazolidin-2-yl)-pyrimidin-4-yl)-amino)-4-methoxy-2-(4-methylpiper-azin-1-yl)phenyl)-acrylamide]: the GI50 is under 0.05 µM.

As for `C=CC(=O)Nc1cc(Nc2cc(N3OCC[C@@H]3c3cccc(-c4ccc(OC)nc4)c3)ncn2)c(OC)cc1N1CCN(C)[C@@H](C)C1` [Example 331, N-(2-((S)-3,4-dimethylpiperazin-1-yl)-4-methoxy-5-((6-((R)-3-(3-(6-methoxypyridin-3-yl)phenyl)isoxazol-idin-2-yl)pyrim-idin-4-yl)amino)-phenyl)acrylamide], the GI50 is under 0.05 µM.
